From the NIST ThermoML archive (doi:10.1016/j.fluid.2013.11.026)

How the values were obtained:
[1] = xn = mol fraction of the nth substance listed; settings: 101 kPa, Liquid, Vibrating tube method
[2] = refractive index (Na D-line) (dimensionless); settings: 101.33 kPa, Liquid, Standard Abbe refractometry
[3] = 101.33 kPa, Liquid, Vibrating tube method
[4] = excess molar enthalpy (molar enthalpy of mixing); xn = mol fraction of the nth substance listed; settings: 101 kPa, Liquid, Calvet calorimetry

CCCCC [pentane] + COC=O
Settings	mass density [kg/m3]
[1], 291.15 K, x2 = 0	627.86

CCCCC [pentane]
Settings	mass density, [3] [kg/m3]	refractive index, [2]
291.15 K	627.86	1.3589
298.15 K	620.89	1.3545

CCCCC [pentane] + CCOC=O
[1], x2 = 0
Settings	mass density [kg/m3]
291.15 K	627.86
298.15 K	620.89

CCCOC=O [propyl methanoate] + CCCCC
Settings	excess molar enthalpy, [4] [kcal/mol]	mass density, [1] [kg/m3]
291.15 K, x1 = 0.057	–	639.86
291.15 K, x1 = 0.0666	0.0844	–
291.15 K, x1 = 0.117	–	653.61
291.15 K, x1 = 0.1411	0.141	–
291.15 K, x1 = 0.166	–	665.38
291.15 K, x1 = 0.2072	0.1824	–
291.15 K, x1 = 0.26	–	688.38
291.15 K, x1 = 0.2696	0.2106	–
291.15 K, x1 = 0.308	–	700.63
291.15 K, x1 = 0.3154	0.2273	–
291.15 K, x1 = 0.3689	0.2395	–
291.15 K, x1 = 0.4172	0.2433	–
291.15 K, x1 = 0.448	–	737.83
291.15 K, x1 = 0.46	0.2431	–
291.15 K, x1 = 0.4953	0.2402	–
291.15 K, x1 = 0.5199	0.238	–
291.15 K, x1 = 0.537	–	763.24
291.15 K, x1 = 0.5543	0.2321	–
291.15 K, x1 = 0.5955	0.2218	–
291.15 K, x1 = 0.631	0.2122	–
291.15 K, x1 = 0.651	–	796.41
291.15 K, x1 = 0.678	0.1974	–
291.15 K, x1 = 0.703	–	812.04
291.15 K, x1 = 0.7184	0.1807	–
291.15 K, x1 = 0.7665	0.1597	–
291.15 K, x1 = 0.819	0.1322	848.4
291.15 K, x1 = 0.847	–	857.3
291.15 K, x1 = 0.879	0.0949	–
291.15 K, x1 = 0.938	–	886.86
291.15 K, x1 = 0.9403	0.0528	–
291.15 K, x1 = 1	–	907.97
298.15 K, x1 = 0.042	0.0468	–
298.15 K, x1 = 0.0505	–	631.54
298.15 K, x1 = 0.0794	–	638.09
298.15 K, x1 = 0.1081	0.114	–
298.15 K, x1 = 0.1375	–	651.43
298.15 K, x1 = 0.1456	0.158	–
298.15 K, x1 = 0.2012	–	666.5
298.15 K, x1 = 0.2109	0.2017	–
298.15 K, x1 = 0.2525	–	679.23
298.15 K, x1 = 0.2706	0.2294	–
298.15 K, x1 = 0.3178	–	695.79
298.15 K, x1 = 0.3317	0.2495	–
298.15 K, x1 = 0.3733	–	710.12
298.15 K, x1 = 0.3889	0.2596	–
298.15 K, x1 = 0.4303	–	725.46
298.15 K, x1 = 0.4431	0.2631	–
298.15 K, x1 = 0.4798	–	739.19
298.15 K, x1 = 0.4882	–	741.75
298.15 K, x1 = 0.4905	0.2627	–
298.15 K, x1 = 0.5353	0.2584	–
298.15 K, x1 = 0.5467	–	758.38
298.15 K, x1 = 0.5637	0.2548	–
298.15 K, x1 = 0.6019	–	774.28
298.15 K, x1 = 0.6149	0.245	–
298.15 K, x1 = 0.67	0.2326	–
298.15 K, x1 = 0.6778	–	796.75
298.15 K, x1 = 0.7271	0.2125	–
298.15 K, x1 = 0.7597	–	822.01
298.15 K, x1 = 0.7888	0.1809	–
298.15 K, x1 = 0.8079	–	837.19
298.15 K, x1 = 0.8503	–	850.78
298.15 K, x1 = 0.8511	0.141	–
298.15 K, x1 = 0.9096	0.0927	–
298.15 K, x1 = 0.9251	–	874.84
298.15 K, x1 = 0.9655	0.0442	–
298.15 K, x1 = 1	–	899.86

CCOC=O [ethyl methanoate] + CCCCC
Settings	excess molar enthalpy [kcal/mol]	mass density [kg/m3]
[1], 291.15 K, x1 = 0.054	–	637.14
[1], 291.15 K, x1 = 0.063	–	638.38
[1], 291.15 K, x1 = 0.118	–	649.24
[1], 291.15 K, x1 = 0.161	–	658.03
[1], 291.15 K, x1 = 0.208	–	668.06
[1], 291.15 K, x1 = 0.305	–	689.98
[1], 291.15 K, x1 = 0.35	–	701.21
[1], 291.15 K, x1 = 0.405	–	715.14
[1], 291.15 K, x1 = 0.499	–	741.07
[1], 291.15 K, x1 = 0.595	–	769.91
[1], 291.15 K, x1 = 0.656	–	789.59
[1], 291.15 K, x1 = 0.751	–	822.65
[1], 291.15 K, x1 = 0.794	–	838.31
[1], 291.15 K, x1 = 0.85	–	859.54
[1], 291.15 K, x1 = 0.895	–	877.8
[1], 291.15 K, x1 = 0.941	–	896.94
[1], 291.15 K, x1 = 1	–	923.4
[1], 298.15 K, x1 = 0.058	–	631.15
[1], 298.15 K, x1 = 0.101	–	639.36
[1], 298.15 K, x1 = 0.104	–	639.54
[1], 298.15 K, x1 = 0.196	–	658.7
[1], 298.15 K, x1 = 0.252	–	670.7
[1], 298.15 K, x1 = 0.304	–	682.9
[1], 298.15 K, x1 = 0.405	–	708.3
[1], 298.15 K, x1 = 0.496	–	733.3
[1], 298.15 K, x1 = 0.609	–	766.9
[1], 298.15 K, x1 = 0.702	–	797.1
[1], 298.15 K, x1 = 0.801	–	832.2
[1], 298.15 K, x1 = 0.858	–	854.37
[1], 298.15 K, x1 = 0.909	–	875.28
[1], 298.15 K, x1 = 0.953	–	893.59
[1], 298.15 K, x1 = 1	–	914.35
[4], 291.15 K, x1 = 0.0907	0.109	–
[4], 291.15 K, x1 = 0.1625	0.1671	–
[4], 291.15 K, x1 = 0.2451	0.223	–
[4], 291.15 K, x1 = 0.3245	0.2663	–
[4], 291.15 K, x1 = 0.3983	0.2937	–
[4], 291.15 K, x1 = 0.4484	0.3043	–
[4], 291.15 K, x1 = 0.4961	0.3093	–
[4], 291.15 K, x1 = 0.536	0.3057	–
[4], 291.15 K, x1 = 0.5703	0.3	–
[4], 291.15 K, x1 = 0.605	0.2945	–
[4], 291.15 K, x1 = 0.6447	0.2818	–
[4], 291.15 K, x1 = 0.6893	0.2653	–
[4], 291.15 K, x1 = 0.7332	0.2445	–
[4], 291.15 K, x1 = 0.7743	0.2182	–
[4], 291.15 K, x1 = 0.8244	0.1855	–
[4], 291.15 K, x1 = 0.874	0.1465	–
[4], 291.15 K, x1 = 0.9259	0.0968	–
[4], 291.15 K, x1 = 0.9621	0.0454	–
[4], 298.15 K, x1 = 0.0714	0.106	–
[4], 298.15 K, x1 = 0.1517	0.1922	–
[4], 298.15 K, x1 = 0.2221	0.2512	–
[4], 298.15 K, x1 = 0.3085	0.299	–
[4], 298.15 K, x1 = 0.3849	0.3186	–
[4], 298.15 K, x1 = 0.445	0.3217	–
[4], 298.15 K, x1 = 0.4999	0.3236	–
[4], 298.15 K, x1 = 0.5411	0.32	–
[4], 298.15 K, x1 = 0.5726	0.3143	–
[4], 298.15 K, x1 = 0.6159	0.3069	–
[4], 298.15 K, x1 = 0.6668	0.2935	–
[4], 298.15 K, x1 = 0.7209	0.2717	–
[4], 298.15 K, x1 = 0.7702	0.2428	–
[4], 298.15 K, x1 = 0.8273	0.2065	–
[4], 298.15 K, x1 = 0.8813	0.16	–
[4], 298.15 K, x1 = 0.9227	0.104	–
[4], 298.15 K, x1 = 0.9662	0.049	–
